Measurements: patent US10618918B2, “Substituted boronic acids as antimicrobials” (priority 2015, dated 2020)
Read-outs that look alike come from different tables or passages of the source.

Assays:
[1] = tested on: ECL1002; test: Aztreonam potentiation (MPC@4), strain ECL1002; conditions: minimum BLI concentration inhibiting growth with aztreonam 4 μg/mL; tested up to 40 μg/mL
[2] = tested on: KP1005 CTX-M-14; test: Tigemonam potentiation (MPC@4), strain KP1005 CTX-M-14
[3] = tested on: ec308 SHV-5; test: Aztreonam potentiation (MPC@4), strain ec308 SHV-5; conditions: for AZT MPC4 SHV-5 ec308: minimum BLI concentration inhibiting growth with aztreonam 4 μg/mL, tested up to 40 μg/mL
[4] = tested on: KP1009 CTX-M-15; test: Aztreonam potentiation (MPC@4), strain KP1009 CTX-M-15; conditions: for AZT MPC4 CTX-M-15 KP1009: minimum BLI concentration inhibiting growth with aztreonam 4 μg/mL, tested up to 40 μg/mL
[5] = tested on: AB1054 OXA-23; test: Meropenem potentiation (MPC@8), strain AB1054 OXA-23; format: cell-based, Acinetobacter baumannii
[6] = tested on: PAM1032/KPC-2; test: Biapenem potentiation MPC64 in PAM1032/KPC-2 (efflux proficient, overexpresses MexAB-OprM); format: cell-based, Pseudomonas aeruginosa
Description: (§1) Efflux of BLIs from Pseudomonas aeruginosa by the MexAB-OprM efflux pump was also evaluated. The plasmid expressing the gene encoding KPC-2 was introduced into two strains of P. aeruginosa, PAM1032 and PAM 1154 that overexpressed or lacked MexAB-OprM, respectively. […] Potency of BLIs to potentiate biapenem in these strains was determined.

[7] = biological target: purified class A, C and D enzymes (β-lactamases) (Escherichia coli, UniProt Q9L5C7); test: biochemical; format: biochemical
purified class A, C and D enzymes (β-lactamases) (Escherichia coli, UniProt Q9L5C7), sequence (Q9L5C7 entry or part of it): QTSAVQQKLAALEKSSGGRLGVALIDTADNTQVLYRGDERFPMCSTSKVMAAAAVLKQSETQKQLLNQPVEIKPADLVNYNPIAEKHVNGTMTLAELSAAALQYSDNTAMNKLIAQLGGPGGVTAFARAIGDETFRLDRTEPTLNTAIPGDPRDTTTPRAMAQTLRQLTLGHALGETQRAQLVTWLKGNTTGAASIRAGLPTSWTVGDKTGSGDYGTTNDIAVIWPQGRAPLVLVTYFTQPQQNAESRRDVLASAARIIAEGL

[8] = biological target: purified class A, C and D enzymes (β-lactamases) (Klebsiella pneumoniae, UniProt Q9F663); test: biochemical; format: biochemical
[9] = biological target: purified class A, C and D enzymes (β-lactamases) (Klebsiella pneumoniae, UniProt Q6XEC0); test: biochemical; format: biochemical
[10] = biological target: T1, purified class A, C and D enzymes (β-lactamases) (Pseudomonas aeruginosa, UniProt P24735); test: biochemical; format: biochemical
T1 construct: rows headed: Ki (Pa-AmpC, NCF), uM; other: purified Pa-AmpC; nitrocefin (NCF) as reporter substrate
T1 sequence (P24735 whole entry): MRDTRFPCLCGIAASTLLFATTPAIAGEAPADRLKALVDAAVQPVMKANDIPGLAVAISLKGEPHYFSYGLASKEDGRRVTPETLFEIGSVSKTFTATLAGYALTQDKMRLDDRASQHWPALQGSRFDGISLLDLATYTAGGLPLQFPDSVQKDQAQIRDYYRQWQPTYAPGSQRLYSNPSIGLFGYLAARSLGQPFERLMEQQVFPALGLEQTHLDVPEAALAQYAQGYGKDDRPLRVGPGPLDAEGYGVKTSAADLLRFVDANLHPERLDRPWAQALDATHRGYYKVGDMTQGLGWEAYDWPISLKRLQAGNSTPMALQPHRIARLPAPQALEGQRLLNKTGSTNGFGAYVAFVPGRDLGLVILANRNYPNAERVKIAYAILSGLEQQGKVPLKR

[11] = biochemical; format: biochemical
[12] = biological target: purified class A, C and D enzymes (β-lactamases) (Enterobacter cloacae, UniProt P05364); test: biochemical; format: biochemical
purified class A, C and D enzymes (β-lactamases) (Enterobacter cloacae, UniProt P05364), sequence (P05364 21-381): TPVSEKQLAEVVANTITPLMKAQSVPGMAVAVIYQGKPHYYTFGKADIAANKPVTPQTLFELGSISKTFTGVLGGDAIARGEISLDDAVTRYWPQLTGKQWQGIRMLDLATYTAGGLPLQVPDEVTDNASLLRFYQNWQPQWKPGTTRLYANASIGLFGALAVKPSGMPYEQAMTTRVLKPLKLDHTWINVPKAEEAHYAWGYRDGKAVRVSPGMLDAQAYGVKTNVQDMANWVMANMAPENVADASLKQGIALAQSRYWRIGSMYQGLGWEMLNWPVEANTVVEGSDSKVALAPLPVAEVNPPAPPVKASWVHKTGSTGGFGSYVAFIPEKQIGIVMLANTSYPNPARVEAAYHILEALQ

[13] = biological target: T2, purified class A, C and D enzymes (β-lactamases) (UniProt P0AD64, L31Q/G234S/E235K, species not given); test: biochemical; format: biochemical
T2 construct: Ki (SHV-12, NCF), uM; other: purified SHV-12; nitrocefin (NCF) as reporter substrate
T2 sequence (P0AD64 1-286 L31Q/G234S/E235K): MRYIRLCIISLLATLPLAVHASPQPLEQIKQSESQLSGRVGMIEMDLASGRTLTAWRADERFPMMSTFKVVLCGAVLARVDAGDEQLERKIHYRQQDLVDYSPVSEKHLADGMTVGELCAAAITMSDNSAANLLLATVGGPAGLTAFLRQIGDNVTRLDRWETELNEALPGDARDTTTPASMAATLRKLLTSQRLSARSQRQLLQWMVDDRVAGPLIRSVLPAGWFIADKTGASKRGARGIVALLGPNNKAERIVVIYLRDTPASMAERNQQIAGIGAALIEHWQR

[14] = tested on: KP1010 SHV-12; test: Aztreonam potentiation (MPC@4), strain KP1010 SHV-12
[15] = tested on: EC1010 CMY-6; test: Aztreonam potentiation (MPC@4), strain EC1010 CMY-6
[16] = tested on: PAM1154/KPC-2; test: Biapenem potentiation MPC64 in PAM1154/KPC-2 (efflux deficient, lacks MexAB-OprM); format: cell-based, Pseudomonas aeruginosa
Description: as §1

[17] = tested on: KP1004 KPC-2; test: Biapenem potentiation (MPC@1), strain KP1004 KPC-2; format: cell-based; conditions: minimum BLI concentration inhibiting growth with biapenem 1 μg/mL; tested up to 40 μg/mL
Description: (§2) Biapenem was present in the test medium at 1 μg/mL. […] Table 3 summarizes the BLI potency of biapenem potentiation (MPC@1) for two strains overexpressing class A (KPC) and class D (OXA-48) carbapenemases. Biapenem MIC for each strain is also shown.

[18] = tested on: KP1004 KPC-2; test: Aztreonam potentiation (MPC@4), strain KP1004 KPC-2
[19] = tested on: ec302 TEM-10; test: Aztreonam potentiation (MPC@4), strain ec302 TEM-10; conditions: for AZT MPC4 TEM-10 ec302: minimum BLI concentration inhibiting growth with aztreonam 4 μg/mL, tested up to 40 μg/mL
[20] = tested on: AB1053 OXA-72; test: Meropenem potentiation (MPC@8), strain AB1053 OXA-72; format: cell-based, Acinetobacter baumannii; conditions: minimum BLI concentration inhibiting growth with meropenem 8 μg/mL; tested up to 20 μg/mL
[21] = tested on: KP1086 OXA-48; test: Biapenem potentiation (MPC@1), strain KP1086 OXA-48; format: cell-based; conditions: minimum BLI concentration inhibiting growth with biapenem 1 μg/mL; tested up to 40 μg/mL
Description: as §2

[22] = tested on: KP1005 CTX-M-14; test: Aztreonam potentiation (MPC@4), strain KP1005 CTX-M-14
[23] = biological target: purified class A, C and D enzymes (β-lactamases) (UniProt P62593, R162S/E237K, species not given); test: biochemical; format: biochemical; conditions: purified TEM-10; nitrocefin (NCF) as reporter substrate
[24] = biological target: T3, purified class A, C and D enzymes (β-lactamases) (Acinetobacter baumannii, UniProt Q9L4P2); test: biochemical; format: biochemical; conditions: purified OXA-23; nitrocefin (NCF) as reporter substrate
T3 construct: rows headed: Ki (OXA-23, NCF), uM; other: purified OXA-23; nitrocefin (NCF) as reporter substrate
T3 sequence (Q9L4P2 whole entry): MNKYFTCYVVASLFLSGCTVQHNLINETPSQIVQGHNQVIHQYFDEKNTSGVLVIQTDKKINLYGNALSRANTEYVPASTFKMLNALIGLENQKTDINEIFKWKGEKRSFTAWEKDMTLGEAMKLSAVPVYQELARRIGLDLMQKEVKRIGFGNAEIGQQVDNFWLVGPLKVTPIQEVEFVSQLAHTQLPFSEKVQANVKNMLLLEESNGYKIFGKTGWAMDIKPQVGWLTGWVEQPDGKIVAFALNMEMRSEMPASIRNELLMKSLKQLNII

[25] = tested on: ec302 TEM-10; test: Tigemonam potentiation (MPC@4), strain ec302 TEM-10; format: cell-based
[26] = tested on: KP1009 CTX-M-15; test: Tigemonam potentiation (MPC@4), strain KP1009 CTX-M-15
[27] = tested on: ec308 SHV-5; test: Tigemonam potentiation (MPC@4), strain ec308 SHV-5; format: cell-based
[28] = tested on: EC1010 CMY-6; test: Tigemonam potentiation (MPC@4), strain EC1010 CMY-6; format: cell-based
[29] = tested on: KP1010 SHV-12; test: Tigemonam potentiation (MPC@4), strain KP1010 SHV-12
[30] = tested on: ECL1002; test: Tigemonam potentiation (MPC@4), strain ECL1002; format: cell-based
[31] = minimum BLI concentration inhibiting growth with tigemonam 4 μg/mL, tested up to 40 μg/mL
[32] = minimum BLI concentration inhibiting growth with aztreonam 4 μg/mL, tested up to 40 μg/mL

Molecule: O=C([O-])c1nccc2c1O[B-](O)(O)CC2.[Na+].[Na+] [Compound 6, DISODIUM; 4,4-DIHYDROXY-5-OXA-8-AZA-4-BORANUIDABICYCLO[4.4.0]DECA-1(6),7,9-TRIENE-7-CARBOXYLATE]
- AZT MPC4 ECL1002 [1]: X (X = MPC@4 ≤ 5 μg/mL)
- TIG MPC4 CTX-M-14 KP1005 [2]: Y (key: X = MPC@4 ≤ 5 μg/mL; Y = 5 μg/mL < MPC@4 ≤ 20 μg/mL; Z = MPC@4 > 20 μg/mL)
- AZT MPC4 SHV-5 ec308 [3]: Y (Y = 5 μg/mL < MPC@4 ≤ 20 μg/mL)
- AZT MPC4 CTX-M-15 KP1009 [4]: X (X = MPC@4 ≤ 5 μg/mL)
- MPM MPC8 AB1054 OXA-23 [5]: X (key: X = MPC@1 ≤ 5 μg/mL; Y = 5 μg/mL < MPC@1 ≤ 20 μg/mL; Z = MPC@1 > 20 μg/mL)
- PAM1032/KPC-2 Biapenem MPC64 [6]: 5
- Ki (CTX-M-14, NCF), uM [7]: X (key: X = Ki ≤ 0.1 μM; Y = 0.1 μM < Ki ≤ 1 μM; Z = Ki > 1 μM)
- Ki (KPC-2, NCF), uM [8]: X (key: X = Ki ≤ 0.1 μM; Y = 0.1 μM < Ki ≤ 1 μM; Z = Ki > 1 μM)
- Ki (OXA-48, NCF), uM [9]: X (key: X = Ki ≤ 0.1 μM; Y = 0.1 μM < Ki ≤ 1 μM; Z = Ki > 1 μM)
- Ki [10]: < 100 nM
- Ki [11]: < 100 nM
- Ki (P99, NCF), uM [12]: X (key: X = Ki ≤ 0.1 μM; Y = 0.1 μM < Ki ≤ 1 μM; Z = Ki > 1 μM)
- Ki ([13]; read-out: Ki (SHV-12, NCF); purified SHV-12; nitrocefin (NCF) as reporter substrate): < 100 nM
- AZT MPC4 SHV-12 KP1010 [14]: X (key: X = MPC@4 ≤ 5 μg/mL; Y = 5 μg/mL < MPC@4 ≤ 20 μg/mL; Z = MPC@4 > 20 μg/mL)
- AZT MPC4 CMY-6 EC1010 [15]: X (key: X = MPC@4 ≤ 5 μg/mL; Y = 5 μg/mL < MPC@4 ≤ 20 μg/mL; Z = MPC@4 > 20 μg/mL)
- PAM1154/KPC-2 Biapenem MPC64 [16]: 0.3
- BPM MPC1 KP1004 KPC-2 [17]: X (X = MPC@1 ≤ 5 μg/mL)
- AZT MPC4 KPC-2 KP1004 [18]: X (key: X = MPC@4 ≤ 5 μg/mL; Y = 5 μg/mL < MPC@4 ≤ 20 μg/mL; Z = MPC@4 > 20 μg/mL)
- AZT MPC4 TEM-10 ec302 [19]: X (X = MPC@4 ≤ 5 μg/mL)
- MPM MPC8 AB1053 OXA-72 [20]: X (X = MPC@1 ≤ 5 μg/mL)
- BPM MPC1 OXA-48 KP1086 [21]: X (X = MPC@1 ≤ 5 μg/mL)

Molecule: C[C@H]1[C@H](NC(=O)/C(=N\OC(C)(C)C(=O)O)c2csc(N)n2)C(=O)N1S(=O)(=O)O [Aztreonam, reference compound]
- MIC ([3]; read-out: Aztreonam MIC): > 128 µg/mL
- MIC ([4]; read-out: Aztreonam MIC): > 128 µg/mL
- MIC ([22]; read-out: Aztreonam MIC): > 128 µg/mL
- MIC ([14]; read-out: Aztreonam MIC): 64 µg/mL
- MIC ([15]; read-out: Aztreonam MIC): > 128 µg/mL
- MIC ([18]; read-out: Aztreonam MIC): > 128 µg/mL
- MIC ([19]; read-out: Aztreonam MIC): 128 µg/mL

Molecule: Disodium; 4,4-dihydroxy-8-(1H-triazol-4-ylmethoxy)-5-oxa-4-boranuidabicyclo[4.4.0]deca-1(6),7,9-triene-7-carboxylate [Compound 24]
- AZT MPC4 ECL1002 [1]: X (X = MPC@4 ≤ 5 μg/mL)
- TIG MPC4 CTX-M-14 KP1005 [2, 31]: Z (Z = MPC@4 > 20 μg/mL)
- AZT MPC4 SHV-5 ec308 [3]: X (X = MPC@4 ≤ 5 μg/mL)
- AZT MPC4 CTX-M-15 KP1009 [4]: X (X = MPC@4 ≤ 5 μg/mL)
- MPM MPC8 AB1054 OXA-23 ([5]; minimum BLI concentration inhibiting growth with meropenem 8 μg/mL, tested up to 20 μg/mL): X (X = MPC@1 ≤ 5 μg/mL)
- Ki [23]: < 100 nM
- Ki ([7]; purified CTX-M-14, nitrocefin (NCF) as reporter substrate): < 100 nM
- Ki ([8]; purified KPC-2, nitrocefin (NCF) as reporter substrate): < 100 nM
- Ki ([9]; purified OXA-48, nitrocefin (NCF) as reporter substrate): < 100 nM
- Ki [24]: < 100 nM
- Ki ([13]; purified SHV-12; nitrocefin (NCF) as reporter substrate; read-out: Ki (SHV-12, NCF)): < 100 nM
- AZT MPC4 CTX-M-14 KP1005 [22, 32]: X (X = MPC@4 ≤ 5 μg/mL)
- AZT MPC4 SHV-12 KP1010 [14, 32]: X (X = MPC@4 ≤ 5 μg/mL)
- TIG MPC4 TEM-10 ec302 [25, 31]: X (X = MPC@4 ≤ 5 μg/mL)
- AZT MPC4 CMY-6 EC1010 [15, 32]: X (X = MPC@4 ≤ 5 μg/mL)
- BPM MPC1 KP1004 KPC-2 [17]: X (X = MPC@1 ≤ 5 μg/mL)
- TIG MPC4 CTX-M-15 KP1009 [26, 31]: X (X = MPC@4 ≤ 5 μg/mL)
- AZT MPC4 KPC-2 KP1004 [18, 32]: X (X = MPC@4 ≤ 5 μg/mL)
- AZT MPC4 TEM-10 ec302 [19]: X (X = MPC@4 ≤ 5 μg/mL)
- TIG MPC4 SHV-5 ec308 [27, 31]: X (X = MPC@4 ≤ 5 μg/mL)
- MPM MPC8 AB1053 OXA-72 [20]: X (X = MPC@1 ≤ 5 μg/mL)
- TIG MPC4 CMY-6 EC1010 [28, 31]: X (X = MPC@4 ≤ 5 μg/mL)
- TIG MPC4 SHV-12 KP1010 [29, 31]: X (X = MPC@4 ≤ 5 μg/mL)
- BPM MPC1 OXA-48 KP1086 [21]: X (X = MPC@1 ≤ 5 μg/mL)
- TIG MPC4 ECL1002 [30, 31]: X (X = MPC@4 ≤ 5 μg/mL)

Molecule: CC1(C)[C@H](NC(=O)/C(=N\OCC(=O)O)c2csc(N)n2)C(=O)N1OS(=O)(=O)O [Tigemonam, reference compound]
- Tigemonam MIC [2]: >64 µg/mL
- Tigemonam MIC ([25]; strain ec302 TEM-10, tigemonam alone): >64 µg/mL
- Tigemonam MIC [26]: >64 µg/mL
- Tigemonam MIC ([27]; strain ec308 SHV-5, tigemonam alone): >64 µg/mL
- Tigemonam MIC ([28]; strain EC1010 CMY-6, tigemonam alone): 16 µg/mL
- Tigemonam MIC ([29]; strain KP1010 SHV-12, tigemonam alone): >64 µg/mL
- Tigemonam MIC ([30]; strain ECL1002, tigemonam alone): 32 µg/mL
